According to PMC7144323, “S-substituted 2-mercaptoquinazolin-4(3H)-one and 4-ethylbenzensulfonamides act as potent and selective human carbonic anhydrase IX and XII inhibitors” (Journal of Enzyme Inhibition and Medicinal Chemistry, 2020):
Read-outs that look alike come from different tables or passages of the source.

Columns and labels:
Assay in all cases: stopped-flow CA inhibition assay
Type in all cases: biochemical
hCA IX = target: T1, hCA IX (Homo sapiens, UniProt Q16790)
T1 construct: gene CA9; recombinant, obtained in-house
Text: stopped-flow CA inhibition assay on hCA IX

hCA XII = target: T2, hCA XII (Homo sapiens, UniProt O43570)
T2 construct: gene CA12; recombinant, obtained in-house
T2 sequence (O43570 25-354): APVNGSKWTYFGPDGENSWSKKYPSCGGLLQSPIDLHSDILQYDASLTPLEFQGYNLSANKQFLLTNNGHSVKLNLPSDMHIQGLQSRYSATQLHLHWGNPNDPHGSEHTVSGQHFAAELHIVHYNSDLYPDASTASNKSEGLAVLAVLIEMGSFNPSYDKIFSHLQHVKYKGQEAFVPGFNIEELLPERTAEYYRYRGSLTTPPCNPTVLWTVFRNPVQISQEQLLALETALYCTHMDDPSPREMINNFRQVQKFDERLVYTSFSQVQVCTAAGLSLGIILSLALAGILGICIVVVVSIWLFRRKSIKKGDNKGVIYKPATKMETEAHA
Text: stopped-flow CA inhibition assay on hCA XII

hCA I = target: T3, hCA I (Homo sapiens, UniProt P00915)
T3 construct: gene CA1; recombinant, obtained in-house
T3 sequence (P00915 2-261): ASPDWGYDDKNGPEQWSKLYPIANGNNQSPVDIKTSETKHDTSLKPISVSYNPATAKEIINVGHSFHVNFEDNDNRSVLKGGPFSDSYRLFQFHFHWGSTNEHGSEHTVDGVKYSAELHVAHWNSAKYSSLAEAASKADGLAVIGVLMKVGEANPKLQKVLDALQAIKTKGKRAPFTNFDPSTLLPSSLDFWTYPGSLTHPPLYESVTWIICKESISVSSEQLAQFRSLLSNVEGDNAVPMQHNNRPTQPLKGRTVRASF
Text: stopped-flow CA inhibition assay on hCA I

hCA II = target: T4, hCA II (Homo sapiens, UniProt P00918)
T4 construct: gene CA2; recombinant, obtained in-house
Text: stopped-flow CA inhibition assay on hCA II

SMILES | Ki (hCA IX) | Ki (hCA XII) | Ki (hCA I) | Ki (hCA IX; mean of […] assays, errors ±[…]) | Ki (hCA XII; mean of […] assays, errors ±[…]) | Ki (hCA II)
COc1ccc(CNC(=O)CSc2nc3ccccc3c(=O)n2CCc2ccc(S(N)(=O)=O)cc2)cc1OC [compound 19, 19] | 145 nM | 97.3 nM | 5470 nM | – | – | –
NS(=O)(=O)c1ccc(CCn2c(SCC(=O)Nc3ccc(Br)cc3)nc3ccccc3c2=O)cc1 [compound 10, 10] | 64.9 nM | 61 nM | 697 nM | – | – | –
CC(Sc1nc2ccccc2c(=O)n1CCc1ccc(S(N)(=O)=O)cc1)C(=O)c1ccccc1 (stereo not shown) [compound 7, 4-(2-(4-Oxo-2-((1-oxo-1-phenylpropan-2-yl)thio)quinazolin-3(4H)-yl)ethyl)benzenesulfonamide] | 63.2 nM | 76.8 nM | 978 nM | – | – | –
Cc1ccc(NC(=O)CSc2nc3ccccc3c(=O)n2CCc2ccc(S(N)(=O)=O)cc2)cc1 [compound 13, 13] | 37.4 nM | 45.2 nM | 878 nM | – | – | –
COc1ccc(NC(=O)CSc2nc3ccccc3c(=O)n2CCc2ccc(S(N)(=O)=O)cc2)cc1 [compound 14, 14] | 84 nM | 49.1 nM | 2570 nM | – | – | –
NS(=O)(=O)c1ccc(CCn2c(SCC(=O)Nc3ccc(F)cc3)nc3ccccc3c2=O)cc1 [compound 12, N-(4-fluorophenyl)-2-((4-oxo-3-(4-sulfamoylphenethyl)-3,4-dihydroquinazolin-2-yl)thio)acetamide] | – | 8.7 nM | – | 12.7 nM | – | –
NS(=O)(=O)c1ccc(CCn2c(SCC(=O)Nc3ccc(Cl)cc3)nc3ccccc3c2=O)cc1 [compound 11, 11] | 66.8 nM | 31.6 nM | 726 nM | – | – | 92 nM
NS(=O)(=O)c1ccc(CCn2c(SCC(=O)NCc3ccc(F)cc3)nc3ccccc3c2=O)cc1 [compound 18, N-(4-fluorobenzyl)-2-((4-oxo-3-(4-sulfamoylphenethyl)-3,4-dihydroquinazolin-2-yl)thio)acetamide] | 256 nM | 113 nM | 2050 nM | – | – | –

Other lines, results leading:

Ki (hCA IX) | Ki (hCA XII) | Ki (hCA I) | Ki (hCA IX; mean of […] assays, errors ±[…]) | Ki (hCA XII; mean of […] assays, errors ±[…]) | Ki (hCA II) | SMILES
40.7 nM | 13 nM | 593 nM | – | – | – | NS(=O)(=O)c1ccc(CCn2c(SCC(=O)c3ccccc3)nc3ccccc3c2=O)cc1 [compound 2, 4-(2-(4-Oxo-2-((2-oxo-2-phenylethyl)thio)quinazolin-3(4H)-yl)ethyl)benzenesulfonamide]
– | – | – | 8 nM | 10.8 nM | – | NS(=O)(=O)c1ccc(CCn2c(SCC(=O)c3ccc(Cl)cc3)nc3ccccc3c2=O)cc1 [compound 4, 4-(2-(2-((2-(4-Chlorophenyl)-2-oxoethyl)thio)-4-oxoquinazolin-3(4H)-yl)ethyl)benzenesulfonamide]
– | – | – | 34.5 nM | 2.4 nM | – | NC(=O)CSc1nc2ccccc2c(=O)n1CCc1ccc(S(N)(=O)=O)cc1 [compound 8, 8]
18.6 nM | 66.7 nM | 3630 nM | – | – | – | CC(Sc1nc2ccccc2c(=O)n1CCc1ccc(S(N)(=O)=O)cc1)C(=O)Nc1ccc(Cl)cc1 (stereo not shown) [compound 20, 20]
27.3 nM | 38.4 nM | 460 nM | – | – | – | NS(=O)(=O)c1ccc(CCn2c(SCC(=O)Nc3ccccc3)nc3ccccc3c2=O)cc1 [compound 9, 9]
24.1 nM | 22.5 nM | 1700 nM | – | – | – | CC(=O)c1ccc(NC(=O)CSc2nc3ccccc3c(=O)n2CCc2ccc(S(N)(=O)=O)cc2)cc1 [compound 16, 16]
35.9 nM | 59.7 nM | 3650 nM | – | – | – | CCOc1ccc(NC(=O)CSc2nc3ccccc3c(=O)n2CCc2ccc(S(N)(=O)=O)cc2)cc1 [compound 15, 15]
100 nM | 16.9 nM | 2670 nM | – | – | – | COc1cc(NC(=O)CSc2nc3ccccc3c(=O)n2CCc2ccc(S(N)(=O)=O)cc2)cc(OC)c1OC [compound 17, 17]
– | 9.1 nM | 400 nM | 16.5 nM | – | – | NS(=O)(=O)c1ccc(CCn2c(SCC(=O)c3ccc(F)cc3)nc3ccccc3c2=O)cc1 [compound 5, 4-(2-(2-((2-(4-Fluorophenyl)-2-oxoethyl)thio)-4-oxoquinazolin-3(4H)-yl)ethyl)benzenesulfonamide]
75.2 nM | 69.6 nM | 1450 nM | – | – | – | NS(=O)(=O)c1ccc(CCn2c(SCC(=O)c3ccc(Br)cc3)nc3ccccc3c2=O)cc1 [compound 3, 4-(2-(2-((2-(4-Bromophenyl)-2-oxoethyl)thio)-4-oxoquinazolin-3(4H)-yl)ethyl)benzenesulfonamide]
25.1 nM | 85.1 nM | 471 nM | – | – | – | Cc1ccc(C(=O)CSc2nc3ccccc3c(=O)n2CCc2ccc(S(N)(=O)=O)cc2)cc1 [compound 6, 4-(2-(4-Oxo-2-((2-oxo-2-(p-tolyl)ethyl)thio)quinazolin-3(4H)-yl)ethyl)benzenesulfonamide]
